Measured values: US9834773B2, “Methods and means for metabolic engineering and improved product formation by micro-organisms” (Universiteit Leiden, priority 2006, dated 2017)
“Also recorded” adds a separate entry of the source.

Experiments:
[1] = system: several streptomycetes (Bacillus subtilis as the indicator strain); experiment: Global antibiotic activity assay: streptomycetes on MM mannitol with or without GlcNAc, Bacillus subtilis overlay; assay type: cell-based, Streptomyces species; settings: MM mannitol 0.5% with vs without GlcNAc 1%; for growth inhibition zones indicative of antibiotic production: B. subtilis indicator
Procedure: FIG. 23. Conservation of the GlcNAc-dependent antibiotic-inducing pathway amongst streptomycetes. Streptomycetes were grown on MM agar plates with 0.5% mannitol alone (left panel), or with added 1% GlcNAc (right panel), and an overlay was applied containing B. subtilis, allowing visualization of growth inhibition caused by antibiotic production. The tested streptomycetes were Streptomyces lividans 1326 (1326), Streptomyces hygroscopicus (hygro), Streptomyces collinus (colli), Streptomyces roseosporus (roseo), Streptomyces cinnamonensis (cinna), Streptomyces venezuelae (venez), Streptomyces clavuligerus (clavu), Streptomyces rimosus (rimos), Streptomyces griseus (grise), Streptomyces acrimycini (acrim), Streptomyces limosus (limos), and Streptomyces avermitilis (averm). See Materials and Methods section for exact nomenclature. The GlcNAc-triggering effect on antibiotic activity was most obvious for S. hygroscopicus, S. collinus, S. venezuelae, S. clavuligerus, S. rimosus, and S. griseus.
Samples (1 μl) of diluted spore suspensions were spotted on minimal medium plates containing 0.5% mannitol with or without 1% GlcNAc and incubated three days at 28° C. For the bioassay, we inoculated 10 ml of molten soft nutrient agar (SNA) with 500 μl of a Bacillus subtilis overnight culture (0D600˜1), and poured the mixture into square 12-cm-side Petri dishes. Plates were kept 2 h at 4° C. to solidify SNA and to allow diffusion of antibiotics produced, then incubated overnight at 30° C.
Is the GlcNAc-mediated control of antibiotic production a more widespread phenomenon in streptomycetes? To assess this, we evaluated the effect of GlcNAc on total antimicrobial activity (bactericidal and bacteristatic) of several streptomycetes, using Bacillus subtilis as the indicator strain. The tested strains were spotted on minimal medium containing mannitol (0.5%) with or without GlcNAc (1%). Excitingly, growth inhibition zones indicative of antibiotic production were much larger for Streptomyces clavuligerus (a producer of cephamycin), Streptomyces collinus (produces kirromycin), Streptomyces griseus (streptomycin producer), Streptomyces hygroscopicus (produces hygromycin), Streptomyces rimosus (produces oxytetracycline), and Streptomyces venezuelae (chloramphenicol, methymycin) (FIG. 23).

[2] = system: S. coelicolor M145, M510, M511, M512; experiment: Pigmented antibiotic (actinorhodin, undecylprodigiosin) production on MM agar plates with or without GlcNAc; assay type: cell-based, Streptomyces coelicolor
Text: FIG. 2. Effect of dasR on development and antibiotic production. (A) Antibiotic production by S. coelicolor M145 and its dasR mutant BAP29 on minimal medium agar plates with or without GlcNAc. […] The latter is in line with our discovery that (i) ActV4A is enhanced in the mutant (FIG. 4) and (ii) the identification of a DasR-bound dre upstream of the pathway-specific activator genes actII-ORF4 for actinorhodin production and redZ for undecylprodigiosin production. Unexpectedly, the dasR mutant grown on minimal media with GlcNAc presents the expression of a yet unchartacterized green pigment. (B) Overexpression of DasR causes developmental arrest. Left, S. coelicolor M145 with control plasmid pUWL-KS; right, the same strain with a plasmid over-expressing dasR (grown for 4 days at 30° C.); note the almost complete lack of aerial hyphae (white) in the strain over-expressing DasR; (C) Scanning electron micrographs of aerial hyphae and spores of S. coelicolor M145 and the dasR mutant BAP29. […] Bars represent 5 μm. (D) Transmission electron micrographs of spores of M145 (left) and BAP29 (right). Arrows indicate the voids between the cell wall and the membrane. FD, full detachment; ID, incomplete detachment.
E. coli DH5α, and BL21(DE3) were used for subcloning and DasR overexpression experiments. S. coelicolor M145, M510 (M145 ΔredD), M511 (M145 ΔactII-IV) and M512 (M145 ΔactII-IV ΔredD) (Floriano and Bibb, 1996) and Streptomzyces lividans 1326 were all obtained from the John Innes Centre strain collection, Streptomyces avermitilis NRRL 8165 (MA-4680), Streptonzyces hygroscopicus ATCC27438, Streptomyces limosus ATCC 19778, Streptomyces rinzosus ATCC 10970, Streptonzyces roseosporus ATCC 31568 and Streptonzyces venezuelae ATCC15439 were obtained from the ATCC strain collection and Streptomyces acrinzycini DSM 40540, Streptomyces cinnanzonensis DSM 40467, Streptomyces clavuligerus NRRL 3585, Streptomyces collinus DSM 40733 and Streptomyces griseus NRRL B2682 from the DSMZ strain collection. The dasR mutant BAP29 (ΔdasR::accC4) was created by replacing the coding region of the gene by the apramycin resistance gene cassette, using plasmid pWHM3, according to a routine procedure (Nothaft et al., 2003). The same strategy was used to create the knock-out mutants for ptsH (BAP1), crr (BAP2), ptsI (BAP3), nagE1 (BAP4), nagE2 (BAP5), and nagE1/E2 (BAP6). BAP1-3 were published previously (Nothaft et al., 2003). S. coelicolor strains were grown at 28° C. using tryptic soy broth without dextrose as complex medium (TSB, Difco) or minimal medium (van Wezel et al., 2005). E. coli cultures were grown in Luria-Bertani broth (LB) at 37° C. Phenotypic characterization of mutants was done on minimal medium agar plates with various carbon sources as indicated in the text (Kieser et al., 2000). Quantification of Act and Red was performed as described previously (Martinez-Costa et al., 1996).
Arguing from the regulatory pathway deduced from the newly extended characterization of the DasR regulon (FIG. 22), we anticipated that DasR-dependent transport and phosphorylation of GlcNAc via the PTS could be a decisive signal to trigger actinorhodin and undecylprodigiosin biosynthesis in S. coelicolor. This hypothesis was tested by plating S. coelicolor M510 (ΔredD), M511 (ΔactII-ORF4) and M512 (ΔredD, ΔactII-ORF4) on MM agar plates with or without GlcNAc. […]

Structure (SMILES): CC(=O)N[C@H]1C(O)O[C@H](CO)[C@@H](O)[C@@H]1O (some centres unmarked) [N-acetylglucosamine]
- antibiotic activity against B. subtilis ([1]; Streptomyces acrimycini): did not seem to affect
- antibiotic activity against B. subtilis ([1]; Streptomyces avermitilis): did not seem to affect
- antibiotic activity against B. subtilis ([1]; Streptomyces cinnamonensis): did not seem to affect
- growth inhibition zones indicative of antibiotic production ([1]; Streptomyces clavuligerus): most obvious; also recorded: much larger
- growth inhibition zones indicative of antibiotic production ([1]; Streptomyces collinus): most obvious; also recorded: much larger
- growth inhibition zones indicative of antibiotic production ([1]; Streptomyces griseus): most obvious; also recorded: much larger
- growth inhibition zones indicative of antibiotic production ([1]; Streptomyces hygroscopicus): most obvious; also recorded: much larger
- antibiotic activity against B. subtilis ([1]; Streptomyces limosus): did not seem to affect
- antibiotic activity against B. subtilis ([1]; Streptomyces lividans): did not seem to affect
- growth inhibition zones indicative of antibiotic production ([1]; Streptomyces rimosus): most obvious; also recorded: much larger
- antibiotic activity against B. subtilis ([1]; Streptomyces roseosporus): repressing effect
- growth inhibition zones indicative of antibiotic production ([1]; Streptomyces venezuelae): most obvious; also recorded: much larger
- induction of the pigmented antibiotics actinorhodin and undecylprodigiosin ([2]; S. coelicolor M145, minimal medium agar plates with or without GlcNAc): required for induction
- production of Act (actinorhodin) ([2]; S. coelicolor M510 (ΔredD), MM agar, GlcNAc 10 mM, five days): induced
- production of Red (undecylprodigiosin) ([2]; S. coelicolor M511 (ΔactII-ORF4), MM agar, GlcNAc 10 mM, five days): induced
- pigmented antibiotic production ([2]; S. coelicolor M512 (ΔredD, ΔactII-ORF4), MM agar, GlcNAc 10 mM): No pigmented antibiotic was observed
- concentration at which the 'GlcNAc effect' was observed ([2]; effect of GlcNAc on antibiotic production and development): > 5 mM
